Test results published in ChEMBL document CHEMBL1201862, “PubChem BioAssay data set” (2004).
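Assay format: 96-well plates, 48-hour exposure. GI50: concentration for 50% inhibition of growth.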 Calls of active or inactive are those of the source. Cut-off read from the data, not from the text of the source: active = GI50 up to about 1.1 µM and inactive = higher.

Key:
Assay in all cases: inhibition of tumour cell growth, NCI panel, 48 h
SF-539 = system: SF-539
M14 = system: M14
COLO 205 = system: COLO 205
IGROV-1 = system: IGROV-1
A498 = system: A498
786-0 = system: 786-0
SK-MEL-2 = system: SK-MEL-2
UACC-257 = system: UACC-257
TK-10 = system: TK-10
SNB-19 = system: SNB-19
CCRF-CEM = system: CCRF-CEM
HCT-116 = system: HCT-116
SN12C = system: SN12C
NCI-H522 = system: NCI-H522
HOP-92 = system: HOP-92
SW-620 = system: SW-620
LOX IMVI = system: LOX IMVI
RXF 393 = system: RXF 393

Measured: GI50

c1ccc2cc(-c3cc4ccccc4s3)ccc2c1
inactive: SF-539 > 100 µM | M14 > 100 µM | COLO 205 > 100 µM | IGROV-1 > 100 µM | A498 > 100 µM | 786-0 > 100 µM | SK-MEL-2 > 100 µM | UACC-257 > 100 µM | TK-10 > 100 µM | SNB-19 > 100 µM | CCRF-CEM > 100 µM | HCT-116 > 100 µM | SN12C > 100 µM | NCI-H522 > 100 µM | HOP-92 > 100 µM | SW-620 > 100 µM | LOX IMVI > 100 µM

O=[N+]([O-])c1cc2c(cc1O)[nH]c1cccc([N+](=O)[O-])c12
inactive: SF-539 > 100 µM | M14 > 100 µM | COLO 205 > 100 µM | 786-0 > 100 µM | SK-MEL-2 > 100 µM | UACC-257 > 100 µM | TK-10 > 100 µM | SNB-19 > 100 µM | CCRF-CEM > 100 µM | HCT-116 > 100 µM | SN12C > 100 µM | NCI-H522 > 100 µM | SW-620 > 100 µM | LOX IMVI > 100 µM

CCn1c(O)c(C(=O)Nc2cccs2)c(=O)n(CC)c1=S
inactive: SF-539 18.5 µM | M14 19.8 µM | COLO 205 16.8 µM | IGROV-1 20.5 µM | A498 19.5 µM | 786-0 19.6 µM | SK-MEL-2 17.3 µM | UACC-257 22.7 µM | TK-10 29 µM | SNB-19 19.5 µM | CCRF-CEM 26.7 µM | HCT-116 19.2 µM | SN12C 20 µM | NCI-H522 18 µM | HOP-92 21 µM | SW-620 23.2 µM | LOX IMVI 17 µM

COC(=O)Cc1cc(=O)[nH]c2c1C(=O)CCC2
inactive: SF-539 > 100 µM | M14 > 100 µM | IGROV-1 > 100 µM | 786-0 > 100 µM | RXF 393 > 100 µM | SK-MEL-2 > 100 µM | UACC-257 > 100 µM | TK-10 > 100 µM | SNB-19 > 100 µM | CCRF-CEM > 100 µM | SN12C > 100 µM | NCI-H522 > 100 µM | HOP-92 > 100 µM | SW-620 > 100 µM

CCNCCNC(=O)c1ccc(Br)cc1
inactive: SF-539 > 100 µM | M14 > 100 µM | IGROV-1 > 100 µM | A498 > 100 µM | 786-0 > 100 µM | RXF 393 > 100 µM | TK-10 > 100 µM | SNB-19 > 100 µM | CCRF-CEM > 100 µM | SN12C > 100 µM | HOP-92 > 100 µM | SW-620 > 100 µM | LOX IMVI > 100 µM

COc1ccc(NC(=O)CC(=O)n2nc(-c3ccccc3)c(/N=N/c3ccccc3C(=O)O)c2-c2ccccc2)cc1
inactive: SF-539 55.1 µM | COLO 205 > 100 µM | IGROV-1 83.4 µM | 786-0 21.9 µM | RXF 393 28.8 µM | SK-MEL-2 > 100 µM | TK-10 > 100 µM | SNB-19 63 µM | CCRF-CEM > 100 µM | HCT-116 > 100 µM | SN12C > 100 µM | NCI-H522 > 100 µM | HOP-92 18.5 µM | SW-620 > 100 µM | LOX IMVI > 100 µM

COC1/C(=C\C(C)=O)c2ccccc2N1C(C)=O (centres undefined)
inactive: SF-539 > 100 µM | M14 > 100 µM | COLO 205 > 100 µM | IGROV-1 > 100 µM | A498 > 100 µM | 786-0 > 100 µM | RXF 393 > 100 µM | SK-MEL-2 > 100 µM | UACC-257 > 100 µM | SNB-19 > 100 µM | CCRF-CEM > 100 µM | HCT-116 > 100 µM | SN12C > 100 µM | HOP-92 > 100 µM | SW-620 > 100 µM

CCC(=O)c1cn(C)c(=O)c2ccccc12
inactive: SF-539 > 100 µM | M14 > 100 µM | COLO 205 > 100 µM | IGROV-1 > 100 µM | 786-0 > 100 µM | RXF 393 > 100 µM | SK-MEL-2 > 100 µM | UACC-257 > 100 µM | TK-10 > 100 µM | SNB-19 > 100 µM | CCRF-CEM > 100 µM | SN12C > 100 µM | NCI-H522 > 100 µM | HOP-92 > 100 µM | SW-620 > 100 µM | LOX IMVI > 100 µM

COc1ccc2c(C(=O)O)cc3cc(OC)c(OC)cc3c2c1
inactive: SF-539 > 100 µM | M14 > 100 µM | COLO 205 > 100 µM | IGROV-1 > 100 µM | 786-0 > 100 µM | RXF 393 > 100 µM | SK-MEL-2 > 100 µM | UACC-257 > 100 µM | TK-10 > 100 µM | SNB-19 > 100 µM | CCRF-CEM > 100 µM | HCT-116 > 100 µM | SN12C > 100 µM | NCI-H522 > 100 µM | HOP-92 > 100 µM | SW-620 > 100 µM | LOX IMVI > 100 µM

CCOC(=O)C/C(=N\c1cc(C)on1)N(CC)CC.[O-][Cl+3]([O-])([O-])O
inactive: SF-539 > 100 µM | M14 > 100 µM | COLO 205 > 100 µM | IGROV-1 > 100 µM | A498 > 100 µM | 786-0 > 100 µM | SK-MEL-2 > 100 µM | TK-10 > 100 µM | SNB-19 > 100 µM | CCRF-CEM > 100 µM | HCT-116 > 100 µM | SN12C > 100 µM | NCI-H522 > 100 µM | HOP-92 > 100 µM | SW-620 > 100 µM

NC1=NC(=O)C(CC(=O)Nc2ccc([N+](=O)[O-])cc2[N+](=O)[O-])S1 (centres undefined)
inactive: M14 > 100 µM | COLO 205 > 100 µM | IGROV-1 > 100 µM | 786-0 > 100 µM | RXF 393 > 100 µM | SK-MEL-2 > 100 µM | UACC-257 > 100 µM | TK-10 > 100 µM | SNB-19 > 100 µM | CCRF-CEM > 100 µM | HCT-116 > 100 µM | SN12C > 100 µM | HOP-92 16.7 µM | SW-620 > 100 µM | LOX IMVI > 100 µM

CC(=O)CC(=O)CCCC(=O)Nc1ccc(Cl)cc1C
inactive: SF-539 > 100 µM | M14 > 100 µM | COLO 205 > 100 µM | IGROV-1 > 100 µM | A498 > 100 µM | 786-0 > 100 µM | SK-MEL-2 > 100 µM | UACC-257 > 100 µM | TK-10 > 100 µM | SNB-19 > 100 µM | CCRF-CEM > 100 µM | HCT-116 > 100 µM | SN12C > 100 µM | NCI-H522 > 100 µM | HOP-92 > 100 µM | SW-620 > 100 µM | LOX IMVI > 100 µM

COc1ccc2c(c1)[n+]([O-])c(C(N)=O)c(N)[n+]2[O-]
inactive: SF-539 > 100 µM | M14 75.5 µM | COLO 205 24.4 µM | IGROV-1 75.7 µM | A498 > 100 µM | 786-0 93.1 µM | SK-MEL-2 > 100 µM | UACC-257 28.6 µM | SNB-19 > 100 µM | HCT-116 > 100 µM | SN12C > 100 µM | NCI-H522 17.1 µM | HOP-92 > 100 µM | SW-620 57.9 µM
